# Source: patent US20060039856A1, “Magnetic resonance with stimulation” (McLean Hospital Corporation, priority 2001, published 2006)
# Test system: right and left V1 (primary visual cortex) BOLD signal
# Assay: BOLD fMRI of visual cortex during red and blue photic stimulation after oral drug or placebo
# Settings: for mean BOLD signal change, higher in drug than in placebo condition: all trials, 2.5 mg oral
structure (smiles),measurement,setting,value
"C[C@H](N)Cc1ccccc1.C[C@H](N)Cc1ccccc1.O=S(=O)(O)O [d-amphetamine, d-amphetamine sulfate]","mean BOLD signal change, higher in drug than in placebo condition","blue light 0.12 lux, drug vs placebo (1.60%)",28%
same,effect of time following drug administration on BOLD signal response (linear regression),"blue light, Z=-2.471, P=0.013, decreasing BOLD signal over time",significant effect of time
same,"mean BOLD signal change, higher in drug than in placebo condition","red light 0.12 lux, drug vs placebo (0.95%)",30%
same,effect of time following drug administration on BOLD signal response (linear regression),"red light, Z=-0.470, P=0.638",no significant effect of drug over time
